Publication PMC9821907, “Synthesis and Antiprotozoal Activity of Azabicyclo-Nonane Pyrimidine Hybrids” (Molecules, 2022)
Read-outs that look alike come from different tables or passages of the source.

Assays:
P. falciparum NF54 [1] = conditions: NF54 strain, sensitive to chloroquine and pyrimethamine, cited from earlier work
P. falciparum K1 [2] = experiment: In vitro microplate 3H-hypoxanthine incorporation assay against P. falciparum K1; format: cell-based, Plasmodium falciparum; conditions: resistant to chloroquine, sulfadoxine and pyrimethamine, average of four determinations, read-out: P. falciparum K1 IC50
Method: (§1) Compounds were tested for their activities against Plasmodium falciparum NF54 (sensitive to chloroquine) and Trypanosoma brucei rhodesiense STIB900, via serial dilution assays. Furthermore, selected compounds were tested against the K1 strain of Plasmodium falciparum (resistant against chloroquine, sulfadoxine and pyrimethamine). Their cytotoxicity was determined with rat skeletal myoblasts (L-6 cells).
(§2) In vitro activity against erythrocytic stages of P. falciparum was determined using a ^3H-hypoxanthine incorporation assay using the drug sensitive NF54 strain [27] or the chloroquine- and pyrimethamine-resistant K1 strain [28]. Compounds were dissolved in DMSO at 10 mg/mL and further diluted in medium before being added to parasite cultures incubated in RPMI 1640 medium without hypoxanthine, supplemented with HEPES (5.94 g/L), NaHCO3 (2.1 g/L), neomycin (100 U/mL), Albumax® (5 g/L) and washed human red cells A+ at 2.5% haematocrit (0.3% parasitaemia). Serial drug dilutions of eleven 3-fold dilution steps covering a range from 100 to 0.002 μg/mL were prepared. The 96-well plates were incubated in a humidified atmosphere at 37 °C; 4% CO2, 3% O2, 93% N2. After 48 h, 0.05 mL of ^3H-hypoxanthine (= 0.5 μCi) was added to each well of the plate. The plates were incubated for a further 24 h under the same conditions. The plates were then harvested with a Betaplate™ cell harvester (Wallac, Zurich, Switzerland), and the red blood cells transferred onto a glass fibre filter then washed with distilled water. The dried filters were inserted into a plastic foil with 10 mL of scintillation fluid, and counted in a Betaplate™ liquid scintillation counter (Wallac, Zurich, Switzerland). IC50 values were calculated from sigmoidal inhibition curves by linear regression using Microsoft Excel. Chloroquine (Sigma C6628) was used as control.

[3] = system: T. brucei rhodesiense STIB900; experiment: In vitro microplate resazurin assay against T. brucei rhodesiense; format: cell-based; conditions: Trypanosoma brucei; bloodstream forms; average of four determinations; read-out: T. brucei rhodesiense STIB900 IC50
Method: as §1
Minimum essential medium (50 µL) supplemented with 25 mM HEPES, 1g/L additional glucose, 1% MEM non-essential amino acids (100×), 0.2 mM 2-mercaptoethanol, 1mM Na-pyruvate and 15% heat-inactivated horse serum was added to each well of a 96-well microtiter plate. Serial drug dilutions of eleven 3-fold dilution steps covering a range from 100 to 0.002 μg/mL were prepared. Then 4 × 10^3 bloodstream forms of T. b. rhodesiense STIB 900 in 50 µL was added to each well and the plate incubated at 37 °C under a 5 % CO2 atmosphere for 70 h. Next, 10 µL resazurin solution (resazurin, 12.5 mg in 100 mL double-distilled water) was added to each well and incubation continued for a further 2–4 h. Then the plates were read with a Spectramax Gemini XS microplate fluorometer (Molecular Devices Cooperation, Sunnyvale, CA, USA) using an excitation wave length of 536 nm and an emission wave length of 588 nm. Data were analyzed with the graphic programme Softmax Pro (Molecular Devices Cooperation, Sunnyvale, CA, USA), which calculated IC50 values by linear regression and 4-parameter logistic regression from the sigmoidal dose inhibition curves. Melarsoprol (Arsobal Sanofi-Aventis, received from WHO) was used as control.

in vitro = conditions: rat
Method: as §1
(§3) Assays were performed in 96-well microtiter plates, each well containing 0.1 mL of RPMI 1640 medium supplemented with 1% L-glutamine (200 mM) and 10% fetal bovine serum, and 4000 L-6 cells (a primary cell line derived from rat skeletal myoblasts, ATCC CRL-1458™). Serial drug dilutions of eleven 3-fold dilution steps covering a range from 100 to 0.002 μg/mL were prepared. After 70 h of incubation the plates were inspected under an inverted microscope to assure growth of the controls and sterile conditions. Then, 0.01 mL resazurin solution (resazurin, 12.5 mg in 100 mL double-distilled water) was added to each well and the plates incubated for another 2 h. The plates were read with a Spectramax Gemini XS microplate fluorometer (Molecular Devices Cooperation, Sunnyvale, CA, USA) using an excitation wave length of 536 nm and an emission wave length of 588 nm. The IC50 values were calculated by linear regression from the sigmoidal dose inhibition curves using SoftmaxPro software (Molecular Devices Cooperation, Sunnyvale, CA, USA). Podophyllotoxin (Sigma P4405) was used as control.

P. falciparum NF54 [4] = experiment: In vitro microplate 3H-hypoxanthine incorporation assay against P. falciparum NF54; format: cell-based; conditions: Plasmodium falciparum; NF54 strain, sensitive to chloroquine and pyrimethamine; average of four determinations; read-out: P. falciparum NF54 IC50
Method: as §1, §2

L-6 cells [5] = experiment: In vitro cytotoxicity with L-6 cells; conditions: read-out: Cytotoxicity L-6 Cells IC50; rat skeletal myoblasts; average of four determinations
Method: as §1, §3

P. falciparum K1 [6] = system: P. falciparum K1; set-up: method as in PMID 25746816; conditions: K1 strain, resistant to chloroquine, sulfadoxine and pyrimethamine; ref [12]; cited from earlier work
[7] = system: T. brucei rhodesiense STIB900; set-up: method as in PMID 25746816; conditions: ref [12]; cited from earlier work
L-6 cells [8] = conditions: cited from earlier work
[9] = Plasmodium falciparum, K1, K1 strain

## CCc1nc(N)nc(N)c1-c1ccc(Cl)cc1 [PYR, pyrimethamine, reference compound]
P. falciparum NF54 [1]; ref [24]
  IC50: 17 nM
P. falciparum K1 [2]; [9]
  IC50: 10000 nM

## Nc1cc(N2CC3C(c4ccccc4)CC(N4CCCC4)(CC3c3ccccc3)C2)nc(N)n1 (racemic) [Compound 12]
[3]
  IC50: 946 ± 374 nM
In vitro
  IC50 at 72 h: 11100 ± 836 nM
P. falciparum K1 [2]; [9]
  IC50: 172 ± 51 nM
P. falciparum NF54 [4]
  IC50: 33 ± 16 nM

## COc1cc([C@@H]2c3cc4c(cc3[C@H](O)[C@H]3COC(=O)[C@H]23)OCO4)cc(OC)c1OC [POD, podophyllotoxin, reference compound]
L-6 cells [5]
  IC50: 12 nM

## Cc1cc(N2CCC3(N4CCCCC4)CC(c4ccccc4)C2C(c2ccccc2)C3)nc(N)n1 (racemic) [Compound 5, rac-4-[(7R,8R)-7,8-diphenyl-5-(piperidin-1-yl)-2-azabicyclo[3.2.2]nonan-2-yl]-6-methylpyrimidin-2-amine]
[3]
  IC50: 3310 ± 235 nM
In vitro
  IC50 at 72 h: 10600 ± 1940 nM
P. falciparum K1 [2]; [9]
  IC50: 140 ± 33 nM
P. falciparum NF54 [4]
  IC50: 212 ± 12 nM

## Cc1cc(N2CC3C(c4ccccc4)CC(N4CCCCC4)(CC3c3ccccc3)C2)nc(Cl)n1 (racemic) [Compound 15, rac-(7R,8R)-3-(2-chloro-6-methylpyrimidin-4-yl)-6,9-diphenyl-1-(piperidin-1-yl)-3-azabicyclo[3.2.2]nonane]
[3]
  IC50: 9510 ± 914 nM
In vitro
  IC50 at 72 h: 27200 ± 11800 nM
P. falciparum K1 [2]; [9]
  IC50: 2080 ± 430 nM
P. falciparum NF54 [4]
  IC50: 1490 ± 784 nM

## Cc1cc(N2CC3C(c4ccccc4)CC(N4CCCC4)(CC3c3ccccc3)C2)nc(Cl)n1 (racemic) [Compound 16, rac-(7R,8R)-3-(2-chloro-6-methylpyrimidin-4-yl)-6,9-diphenyl-1-(pyrrolidin-1-yl)-3-azabicyclo[3.2.2]nonane]
[3]
  IC50: 4310 ± 21 nM
In vitro
  IC50 at 72 h: 12500 ± 1440 nM
P. falciparum K1 [2]; [9]
  IC50: 292 ± 21 nM
P. falciparum NF54 [4]
  IC50: 281 ± 6 nM

## Cc1cc(N2CC3C(c4ccccc4)CC(N4CCCCC4)(CC3c3ccccc3)C2)nc(N)n1 (racemic) [Compound 7]
[3]
  IC50: 573 ± 132 nM
In vitro
  IC50 at 72 h: 8000 ± 1890 nM
P. falciparum K1 [2]; K1 strain
  IC50: 51 ± 24 nM
P. falciparum K1 [2]; [9]
  IC50: 51 to 94 nM
P. falciparum NF54 [4]
  IC50: 24 ± 4 nM

## Nc1cc(N2CCC3(N4CCCC4)CC(c4ccccc4)C2C(c2ccccc2)C3)nc(N)n1 (racemic) [Compound 10, rac-6-[(7R,8R)-7,8-diphenyl-5-(pyrrolidin-1-yl)-2-azabicyclo[3.2.2]nonan-2-yl]pyrimidine-2,4-diamine]
[3]
  IC50: 853 ± 16 nM
In vitro
  IC50 at 72 h: 11260 ± 33 nM
P. falciparum K1 [2]; [9]
  IC50: 216 ± 37 nM
P. falciparum NF54 [4]
  IC50: 79 ± 1 nM

## 5-(pyrrolidin-1-yl)-2-azabicyclononane [Compound 2]
P. falciparum K1 [6]
  IC50: 560 nM
[7]
  IC50: 1160 nM
L-6 cells [8]
  IC50: 120000 nM

## Cc1cc(N2CC3C(c4ccccc4)CC(N4CCCC4)(CC3c3ccccc3)C2)nc(N2CCCC2)n1 (racemic) [Compound 20, rac-(7R,8R)-3-[6-methyl-2-(pyrrolidin-1-yl)pyrimidin-4-yl]-6,9-diphenyl-1-(pyrrolidin-1-yl)-3-azabicyclo[3.2.2]nonane]
[3]
  IC50: 764 ± 335 nM
In vitro
  IC50 at 72 h: 4160 ± 39 nM
P. falciparum K1 [2]; [9]
  IC50: 87 ± 47 nM
P. falciparum NF54 [4]
  IC50: 87 ± 59 nM

## 5-(piperidin-1-yl)-2-azabicyclo-nonane [Compound 1]
P. falciparum K1 [6]
  IC50: 640 nM
[7]
  IC50: 6570 nM
L-6 cells [8]
  IC50: 89700 nM

## Nc1cc(N2CCC3(N4CCCCC4)CC(c4ccccc4)C2C(c2ccccc2)C3)nc(N)n1 (racemic) [Compound 9, rac-6-[(7R,8R)-7,8-diphenyl-5-(piperidin-1-yl)-2-azabicyclo[3.2.2]nonan-2-yl]pyrimidine-2,4-diamine]
[3]
  IC50: 1560 ± 643 nM
In vitro
  IC50 at 72 h: 9730 ± 661 nM
P. falciparum K1 [2]; K1 strain
  IC50: 94 ± 4 nM
P. falciparum K1 [2]; [9]
  IC50: 51 to 94 nM
P. falciparum NF54 [4]
  IC50: 51 ± 7 nM

## 1-(piperidin-1-yl)-3-azabicyclononane [Compound 3]
P. falciparum K1 [6]
  IC50: 750 nM
[7]
  IC50: 2020 nM
L-6 cells [8]
  IC50: 122000 nM

## Cc1cc(N2CCC3(N4CCCC4)C[C@H](c4ccccc4)C2[C@@H](c2ccccc2)C3)nc(Cl)n1 (racemic) [Compound 14, rac-(7R,8R)-2-(2-chloro-6-methylpyrimidin-4-yl)-7,8-diphenyl-5-(pyrrolidin-1-yl)-2-azabicyclo[3.2.2]nonane]
[3]
  IC50: 1640 ± 22 nM
In vitro
  IC50 at 72 h: 9620 ± 1100 nM
P. falciparum K1 [2]; [9]
  IC50: 366 ± 95 nM
P. falciparum NF54 [4]
  IC50: 1040 ± 302 nM

## 1-(pyrrolidin-1-yl)-3-azabicyclononane [Compound 4]
P. falciparum K1 [6]
  IC50: 95 nM
P. falciparum NF54 [1]; ref [13]
  IC50: 72 nM
[7]
  IC50: 1000 nM
L-6 cells [8]; read-out: Cytotoxicity L-6 Cells IC50, rat skeletal myoblasts, ref [12]
  IC50: 72900 nM

## Cc1cc(N2CC3C(c4ccccc4)CC(N4CCCCC4)(CC3c3ccccc3)C2)nc(N2CCCCC2)n1 (racemic) [Compound 23, rac-(7R,8R)-3-[6-methyl-2-(piperidin-1-yl)pyrimidin-4-yl]-6,9-diphenyl-1-(piperidin-1-yl)-3-azabicyclo[3.2.2]nonane]
[3]
  IC50: 3380 ± 9 nM
In vitro
  IC50 at 72 h: 16000 ± 1240 nM
P. falciparum K1 [2]; [9]
  IC50: 570 ± 12 nM
P. falciparum NF54 [4]
  IC50: 607 ± 10 nM
